One assay concerns HSV-2 Strain G. The assay can be described thus: Viral qPCR assay, HSV-2 (Example 14). It counts as cell-based. The following applies: Human alphaherpesvirus 2, Vero, 72 h, Strain G in Vero or MRCS cells, 0.004-0.4 pfu/cell, viral genome copy number by qPCR, read-out: HSV2 Cell EC50. How it is done:
(§1) MRCS and Vero cells were obtained from ATCC and were maintained at 37° C./5% CO2/90% relative humidity in Minimal Essential Medium with 10% fetal bovine serum, […], 100 units/mL penicillin and 100 ug/mL streptomycin. Assay plates were prepared by dispensing compounds dissolved in DMSO into wells of 384 well collagen-coated plates using an ECHO acoustic dispenser. Each test compound was tested in a 10-point, serial 3-fold dilution. Controls included uninfected cells and infected cells treated only with DMSO. Assays were initiated by mixing selected cells, in suspension, with virus, and dispensing 50 μl/well infected cells to pre-plated compounds. Plates were incubated at 37° C./5% CO2/90% relative humidity for ˜72 hours to permit genomic replication, and infected cells were lysed by the addition of an equal volume of lysis buffer (10 mM Tris-HCl, pH8, 50 mM KCl, 2 mM MgCl2, 0.45% NP-40, 0.45% Tween-20, and 100 μg/mL proteinase K). An aliquot of the lysate was then transferred to a 384-well PCR plate and incubated at 56° C. for 1 hour, and then at 95° C. for 10 minutes. Levels of a viral gene were measured in 10 ul qPCR assays using TaqMan® Gene Expression Master Mix (Applied Biosystems) and an 7900HT Fast Real-Time PCR System with 384-Well Block Module. 7-point, serial 10-fold dilutions of a plasmid standard were run on each plate to generate a standard curve, and genome copies numbers were calculated by plotting experimental Ct onto linear regression of the standard curve. Compound effects on viral genome copy number were normalized to the window defined by the controls. Calculated % effects were fit using a 4-parameter algorithm, and EC50 was reported. • HCMV: Strain AD169 was assayed in MRC-5 cells and was used at 0.05-0.1 pfu/cell. The assays were performed in either growth media or in the same media with 50% fetal bovine serum. Primer-probe set was Thermo Fisher Assay ID=AIFATFK. • HSV-1: Strain F was assayed in Vero or MRCS cells and was used at 0.0005-0.004 pfu/cell in growth medium. Primer-probe set was Thermo Fisher Assay ID=AIBJZIB. • HSV-2: Strain G was assayed in Vero or MRCS cells and was used at 0.004-0.4 pfu/cell in growth medium. Primer-probe set was Thermo Fisher Assay ID=AICSXOJ.
In general terms: Real-time PCR tracks product formation cycle by cycle.

Another assay deals with HSV-1 Strain F. The assay can be described thus: Viral qPCR assay, HSV-1 (Example 14). It counts as cell-based. As to conditions: Human alphaherpesvirus 1, Vero, 72 h, Strain F in Vero or MRCS cells, 0.0005-0.004 pfu/cell, viral genome copy number by qPCR, read-out: HSV1 Cell EC50. How it is done: as §1
For another assay, the system named is HCMV Strain AD169. The assay can be described thus: Viral qPCR assay, HCMV (Example 14). As to conditions: Human betaherpesvirus 5, AD169, MRC5, 72 h, Strain AD169 in MRC-5 cells, 0.05-0.1 pfu/cell, ~72 hours, viral genome copy number by qPCR; growth media or 50% fetal bovine serum; read-out: CMV Cell EC50. It counts as cell-based. How it is done: as §1
Assay [1] addresses T1, Human cytomegalovirus DNA polymerase (Human cytomegalovirus, UniProt P08546).
T1 construct: made in house; host or cells: SF21 insect cells (baculovirus vector)
The assay can be described thus: CMV polymerase assay (AlphaLISA, Example 15). It counts as biochemical. The following applies: HCMV polymerase 0.2 nM; 30 min pre-incubation; 60 min at 37° C. How it is done: (§2) CMV and VZW Polymerase Assays
(§3) Human cytomegalovirus and varicella zoster virus DNA polymerases were expressed via baculovirus vector in SF21 cells and purified. Heterodimeric nucleic acid substrate used in the herpesvirus polymerase reactions were generated by annealing a 59-mer template to a 17-mer digoxigenin-labeled primer. Polymerase (HCMV final concentration of 0.2 nM; VZV final concentration of 0.4 nM) was combined with an inhibitor compound or DMSO in assay buffer (10 mM HEPES, pH 7.5, 25 mM KCl, 25 mM NaCl, 5 mM MgCl2, 5% glycerol, 0.67 mg/ml bovine serum albumin, and 1 mM tris(2-carboxyethyl)phosphine)), and this mixture was pre-incubated for 30 minutes at room temperature in 384-well microtiter plates. The polymerization reaction was initiated by the addition of template/primer substrate (final concentration: 1.6 nM) and dNTPs (final concentration: 24 nM dCTP, 24 nMdGTP, 16 nM dATP, 16 nM dTTP, and 0.8 nM biotin-dUTP). After a 60 minute incubation period at 37° C., the reactions were terminated using quench buffer (25 mM HEPES pH 7.5, 100 mM NaCl, 0.25% Tween-20, 12 mM EDTA, and 1 mg/ml bovine serum albumin). Incorporation of biotinylated UTP was detected with 2.5-5 μg/mL anti-DIG AlphaLISA acceptor beads and 5-10 μg/mL streptavidin AlphaLISA donor beads (PerkinElmer). Compound effects were normalized to the window defined by the controls (DMSO only and pre-quenched wells) and were fit using a 4-parameter algorithm to report an IC50.
(In general: Bead proximity is the source of the signal in Alpha formats.)

The target in assay [2] is T2, varicella zoster virus DNA polymerase (Varicella-zoster virus, UniProt P09252).
T2 construct: made in house; host or cells: SF21 insect cells (baculovirus vector)
T2 sequence (P09252 whole entry): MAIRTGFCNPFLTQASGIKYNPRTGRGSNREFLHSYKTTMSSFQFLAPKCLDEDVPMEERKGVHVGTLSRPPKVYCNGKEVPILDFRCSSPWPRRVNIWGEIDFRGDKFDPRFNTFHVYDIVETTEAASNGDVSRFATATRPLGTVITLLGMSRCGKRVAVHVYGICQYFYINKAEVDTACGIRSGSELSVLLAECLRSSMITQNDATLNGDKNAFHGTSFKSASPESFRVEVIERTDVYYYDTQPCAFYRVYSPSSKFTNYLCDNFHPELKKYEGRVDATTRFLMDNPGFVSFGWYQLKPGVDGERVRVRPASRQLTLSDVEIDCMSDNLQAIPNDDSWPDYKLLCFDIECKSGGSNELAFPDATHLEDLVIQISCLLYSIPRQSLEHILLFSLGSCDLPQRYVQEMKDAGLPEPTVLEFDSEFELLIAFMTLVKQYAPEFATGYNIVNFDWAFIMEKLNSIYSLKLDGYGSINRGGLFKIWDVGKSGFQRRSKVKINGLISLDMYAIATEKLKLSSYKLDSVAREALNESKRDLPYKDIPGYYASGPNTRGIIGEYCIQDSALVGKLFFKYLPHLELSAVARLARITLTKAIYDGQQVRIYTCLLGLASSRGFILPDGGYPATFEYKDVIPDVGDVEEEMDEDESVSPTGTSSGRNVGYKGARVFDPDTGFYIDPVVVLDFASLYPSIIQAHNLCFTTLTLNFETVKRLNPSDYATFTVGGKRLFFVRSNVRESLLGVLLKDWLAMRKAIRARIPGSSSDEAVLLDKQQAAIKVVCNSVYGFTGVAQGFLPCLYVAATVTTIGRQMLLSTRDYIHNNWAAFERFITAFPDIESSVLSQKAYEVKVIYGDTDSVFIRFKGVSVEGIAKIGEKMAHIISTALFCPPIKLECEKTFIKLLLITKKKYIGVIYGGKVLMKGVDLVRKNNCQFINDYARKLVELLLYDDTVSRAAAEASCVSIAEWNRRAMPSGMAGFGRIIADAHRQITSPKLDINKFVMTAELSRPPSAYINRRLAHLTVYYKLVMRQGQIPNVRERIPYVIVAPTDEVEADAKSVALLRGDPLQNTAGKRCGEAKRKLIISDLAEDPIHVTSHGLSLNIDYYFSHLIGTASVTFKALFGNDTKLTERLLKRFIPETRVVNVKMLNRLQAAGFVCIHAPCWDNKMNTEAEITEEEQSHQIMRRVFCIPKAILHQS
The assay can be described thus: VZV polymerase assay (AlphaLISA, Example 15). It counts as biochemical. As to conditions: VZV polymerase 0.4 nM; 30 min pre-incubation; 60 min at 37° C. How it is done: as §2, §3

The structures appear in SMILES notation.

We go through three compounds from US12605369B2, “Amido-substituted heterocyclic compounds and methods of use thereof for the treatment of herpes viruses” (Merck Sharp & Dohme LLC, priority 2019, dated 2026).

T1 sequence (P08546 whole entry): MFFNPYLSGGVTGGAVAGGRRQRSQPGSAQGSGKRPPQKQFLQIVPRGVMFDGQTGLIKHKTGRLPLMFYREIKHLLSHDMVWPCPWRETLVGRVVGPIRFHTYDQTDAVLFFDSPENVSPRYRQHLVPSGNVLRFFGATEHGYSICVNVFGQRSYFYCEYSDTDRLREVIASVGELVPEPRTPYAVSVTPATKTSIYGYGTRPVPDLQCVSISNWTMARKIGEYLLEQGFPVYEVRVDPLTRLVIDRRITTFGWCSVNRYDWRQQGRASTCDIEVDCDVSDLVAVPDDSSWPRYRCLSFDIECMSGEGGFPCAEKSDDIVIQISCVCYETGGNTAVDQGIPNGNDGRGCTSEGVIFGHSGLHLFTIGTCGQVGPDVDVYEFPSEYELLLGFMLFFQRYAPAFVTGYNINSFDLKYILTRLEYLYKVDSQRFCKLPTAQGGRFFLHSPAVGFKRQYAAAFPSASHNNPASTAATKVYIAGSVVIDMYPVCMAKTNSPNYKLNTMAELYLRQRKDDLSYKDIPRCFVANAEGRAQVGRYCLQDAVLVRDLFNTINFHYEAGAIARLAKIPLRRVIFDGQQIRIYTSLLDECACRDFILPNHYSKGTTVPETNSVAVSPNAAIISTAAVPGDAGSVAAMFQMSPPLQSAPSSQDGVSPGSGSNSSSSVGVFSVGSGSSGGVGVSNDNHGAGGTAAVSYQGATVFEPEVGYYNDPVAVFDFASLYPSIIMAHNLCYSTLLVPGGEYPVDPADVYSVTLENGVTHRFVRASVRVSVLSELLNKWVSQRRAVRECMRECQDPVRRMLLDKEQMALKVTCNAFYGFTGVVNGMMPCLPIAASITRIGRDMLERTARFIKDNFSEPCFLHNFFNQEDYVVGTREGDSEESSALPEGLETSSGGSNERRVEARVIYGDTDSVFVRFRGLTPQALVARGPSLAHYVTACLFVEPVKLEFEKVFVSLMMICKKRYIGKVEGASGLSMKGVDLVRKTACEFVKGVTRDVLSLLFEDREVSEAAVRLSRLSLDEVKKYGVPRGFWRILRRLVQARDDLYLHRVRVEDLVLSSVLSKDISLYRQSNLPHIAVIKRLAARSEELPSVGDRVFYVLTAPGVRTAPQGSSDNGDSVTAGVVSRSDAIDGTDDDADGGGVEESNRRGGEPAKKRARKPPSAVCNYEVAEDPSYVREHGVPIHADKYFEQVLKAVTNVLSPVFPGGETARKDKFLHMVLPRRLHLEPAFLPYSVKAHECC

With `COc1nc(NC(=O)C2CCc3cc(Cl)ccc3O2)ccc1C[C@H]1COC(=O)N1` (stereo partly drawn) [Compound 18], the figures for the EC50 with HSV-2 Strain G, in the assay on HSV-1 Strain F and in the assay with HCMV Strain AD169 were 148 nM, 128 nM and 435 nM, respectively. Moreover, the IC50 (as a rule, the concentration that gives 50% inhibition) in assay [1] came out at 1.4 nM; in assay [2] it was 1 nM.

On to `COc1nc(N2CCC(c3ccc(C#N)cc3)C2=O)ccc1C[C@H]1COC(=O)N1` (stereo partly drawn) [Compound 20], for which the EC50 (commonly the concentration giving half of the maximal effect) was determined as 132 nM with HSV-2 Strain G, 124 nM in the assay with HSV-1 Strain F and 120 nM with HCMV Strain AD169. In addition, the IC50 in assay [1] was 6 nM; in assay [2], 5 nM.

For `COCc1cc(C#N)ccc1CC(=O)Nc1ccc(C[C@H]2COC(=O)N2)c(OC)n1` [Compound 6], the EC50 in the assay on HSV-2 Strain G turned out to be 198 nM; in the assay on HSV-1 Strain F, 152 nM; in the assay with HCMV Strain AD169, 36 nM. In addition, the values for the IC50 in assay [1] and in assay [2] were 9 nM and 8 nM, respectively.
